Test system: B. subtilis membranes
Assay: DiSC3(5) depolarization assay, MAcBCE/MAkBCE
Assay type: cell-based, Bacillus subtilis
Settings: 2 μM compound, 60 mM KCl, NaCl or NMDG-Cl; for change in DiSC3(5) fluorescence (membrane depolarization): 25° C, 10 minutes
Protocol: A 2 mL liquid culture of transformed B. subtilis cells was grown at 37° C. in LB medium supplemented with 5 μg/mL kanamycin until OD600=0.6 was reached. The cells were collected by centrifugation at 2000 rpm over 3 min. The bacteria were washed twice with an NMDG-MeSO3 solution (100 mM NMDG, 10 mM HEPES, pH adjusted to 7.4 with methane sulfonic acid). […] The working dye solution was a 200 μM solution of DiSC3(5) (3,3′-dipropylthiadicarbocyanine iodide; Tokyo Chemical Industry) in DMSO. A series of 2 M solutions of NMDG-Cl, NaCl and KCl were prepared containing 10 mM HEPES; the pH was adjusted to pH 7.4 with NMDG, NaOH or KOH, respectively, to avoid any pH changes after their addition. The experiment was initiated with 3 mL of NMDG-MeSO3 in a quartz cuvette, then 5 μL of the dye solution was added (timepoint t1, 50 sec) for a 0.3 μM final concentration by the end of experiment. This was followed by the addition of 100 μL of the B. subtilis suspension (timepoint t2, 100 sec). After 150 sec (timepoint t3, 250 sec), the fluorescence stabilized to a minimum intensity and 100 μL of the 2 M NMDG-Cl, NaCl or KCl solution was added to reach ˜60 mM final concentration of the salt. The final step was the addition 0.64 μL of a 10 mM stock solution of the desired MAcBCE or MAkBCE compound in TFE (timepoint t4, 400 sec), for a final concentration of 2 μM. Negative controls were performed by adding the same volume of pure TFE to the cuvette at timepoint t4. Fluorescence intensity was recorded each second using a Horiba Fluoromax 4 spectrometer (λexcitation=640 nm; λemission=670 nm). The solution inside the cuvette was vigorously mixed throughout the experiment by using a magnetic stirrer and the temperature was kept constant at 25° C. For purposes of normalization, the fluorescence intensity was divided by the fluorescence level just before timepoint t2.
To determine whether MAcBCE or MAkBCE compounds catalyse ion-selective flux, a set of highly bioactive members bearing ten-carbon chain lengths were tested for their ability to depolarize B. subtilis membranes using a test based on the fluorescent dye 3,3-dipropylthiadicarbocyanine (DiSC3(5)). This set of compounds were selected as four of the most toxic members of the MAcBCE and MAkBCE compound library (5-O-10, 5-A-10, 6-O-10, and 6-A-10; FIG. 3) belong to this group and all are soluble in TFE. The two non-toxic benzo(12-crown-4) scaffold members (4-O-10 and 4-A-10; FIG. 3) were used as controls.
FIGS. 4 and 5 show the time course of DiSC3(5) fluorescence due to the addition of 2 μM 6-A-10 (FIG. 4) and 6-O-10 (FIG. 5). The average of the final fluorescence values (mean±S.E.M.) of at least three experiments are shown in FIGS. 4 and 5 and are similarly plotted for 4-A-10 (FIG. 6), 5-A-10 (FIG. 7), 6-A-10 (FIG. 8), 4-O-10 (FIG. 9), 5-O-10 (FIG. 10), and 6-O-10 (FIG. 11). Experiments were performed in a NMDG-MeSO3 solution (100 mM NMDG, 10 mM HEPES, pH adjusted to 7.4 with methane sulfonic acid). The events are: t1, addition of dye; t2, addition of B. subtilis; t3, addition of a 2 M NMDG-Cl, 2 M NaCl or a 2 M KCl solution up to a final concentration of 60 mM; t4, addition of each MAcBCE or MAkBCE compound up to 2 μM. Experiments were repeated at least four times per condition and normalized relative to the fluorescence intensity just before the addition of cells.
The potentiometric dye DiSC3(5) was used to measure the ability of MAcBCE and MAkBCE compounds to catalyse ion-selective transport. DiSC3(5) undergoes membrane voltage-dependent partitioning between the intracellular and the extracellular medium. DiSC3(5) accumulates within a cell with a polarized membrane (negatively charged inside the cell) and is released when the cell membrane is depolarized (positively charged inside the cell). The membrane voltage in B. subtilis is roughly −120 mV, leading to DiSC3(5) accumulation in the bacteria (timepoint t2 in FIG. 4A-B). […]

Row | Compound | kinetics of the depolarization, ion dependence | change in DiSC3(5) fluorescence (membrane depolarization)
1 | CCCCCCCCCC(=O)c1ccc2c(c1)OCCOCCOCCOCCOCCO2 [Compound 6-O-10, 1-(2,3,5,6,8,9,11,12,14,15-decahydrobenzo[b][1,4,7,10,13,16]hexaoxacyclooctadecin-18-yl)decan-1-one] | fastest in presence of K^+ followed by Na^+ and then NMDG^+ | clear increase in fluorescence
2 | CCCCCCCCCCc1ccc2c(c1)OCCOCCOCCOCCOCCO2 [Compound 6-A-10, 18-decyl-2,3,5,6,8,9,11,12,14,15-decahydrobenzo[b][1,4,7,10,13,16]hexaoxacyclooctadecine] |  | clear increase in fluorescence

Source: patent US20230060873A1, “COMPOUNDS AND METHODS FOR FORMING ION CHANNELS IN BIOLOGICAL MEMBRANES” (Washington University, priority 2021, published 2023)
